Values after ≈ are worked out from the molar mass of the structure shown. Like-named read-outs stand apart in the source and are kept apart here.
Assays:
[1] = Solubility of the indolinone-based compound in water and excipients; assay type: physicochemical
Method: An increase in the indolinone-based compound's aqueous solubility in hydrotropic solute solutions like nicotinamide and pyridoxine hydrochloride was observed. It is soluble (15-20 mg/mL) in polar excipients like polyethylene glycols of 300 and 400 MW.
(§1) The indolinone-based compound is a planar aromatic compound and is non-ionizable in the pharmaceutically acceptable range.

[2] = Log of ratio of octanol to water solubility (individually determined); assay type: physicochemical; details: solubilities individually determined
Description: as §1

[3] = tested on: VEGF-induced endothelial cell growth; test: Inhibition of VEGF-induced endothelial cell growth; assay type: cell-based; details: in words
Method: Indolinone-based compounds of the invention have been tested for their ability to activate or inhibit protein kinases in biological assays. The methods used to measure indolinone-based compound modulation of protein kinase function are described in U.S. application Ser. No. 08/702,282, filed Aug. 23, 1996, incorporated herein by reference in its entirety, a including any drawings. In particular, indolinone-based compounds of the invention were tested for their ability to inhibit the FLK protein kinase.

melting point | Structure (SMILES) | further results
170 to 171 °C | Nc1ncnc2cccc(Oc3ccc(OCc4ccccc4)cc3)c12 [Procedure C 4, 4-Amino-5-(4-benzyloxyphenoxy)quinazoline] | 
201 to 203 °C | Nc1ncnc2cccc(Oc3ccc4c(c3)OCO4)c12 [Procedure C 5, 4-Amino-5-(3,4-methylenedioxyphenoxy) quinazoline] | 
179 to 181 °C | CN(C)c1cccc(Oc2cccc3ncnc(N)c23)c1 [Procedure C 2, 4-Amino-5-(3-dimethylaminophenoxy)quinazoline] | 
248 to 250 °C | Nc1nc(N)c2c(-n3cccc3)cccc2n1 [Procedure D 4, 2,4-Diamino-5-(pyrrol-1-yl)quinazoline] | 
188 to 190 °C | Nc1ncnc2cccc(Oc3ccc(F)cc3)c12 [Similar synthetic processes 1, 4-Amino-5-(4-fluorophenoxy)quinazoline] | 
245 to 247 °C | Nc1ncnc2cccc(Oc3cccnc3)c12 [Procedure C 3, 4-Amino-5-(3-pyridinoxy)quinazoline] | 

Further lines, the compound ahead of its results:

Structure (SMILES) | melting point | further results
COc1ccc(Oc2cccc3ncnc(N)c23)cc1 [Procedure C 1, 4-Amino-5-(4-methoxyphenoxy)quinazoline] | 192 to 195 °C | 
CN(C)CCCOc1cccc2nc(N)nc(N)c12 [Procedure B 9, 2,4-Diamino-5-(3-dimethylaminopropoxy)quinazoline] | 193 to 195 °C | 
Nc1nc(N)c2c(Oc3cccc(Br)c3)cccc2n1 [Procedure B 5, 2,4-Diamino-5-(3-bromophenoxy)quinazoline] | 292 to 295 °C | 
COc1ccc(Oc2cccc3nc(N)nc(N)c23)cc1OC [Procedure B 2, 2,4-Diamino-5-(3,4-dimethoxyphenoxy)quinazoline] | 301 to 302 °C | 
Nc1nc(N)c2c(Oc3ccc(OCc4ccccc4)cc3)cccc2n1 [Procedure B 8, 2,4-Diamino-5-(4-benzyloxyphenoxy)quinazoline] | 175 to 177 °C | 
Cc1cc(C)c(C=C2C(=O)Nc3ccccc32)[nH]1 [3-[(2,4-dimethylpyrrol-5-yl)methylene]-2-indolinone] |  | influence of pH of the aqueous media on aqueous solubility [1]: did not influence; solubility ([1]; aromatic solvents like benzyl alcohol, organic solvent or mixture, read-out: solubility in aromatic solvents): 10 to 15 mg/mL (≈ 42 to 62.9 mM); aqueous solubility in hydrotropic solute solutions ([1]; hydrotropic solute solutions like nicotinamide and pyridoxine hydrochloride): increase; solubility in water, water miscible non-aqueous solvents, and oils ([1]; in words): low solubility; solubility ([1]; polyethylene glycols of 300 and 400 MW, organic solvent or mixture, read-out: solubility in polar excipients): 15 to 20 mg/mL (≈ 62.9 to 83.9 mM); solubility ([1]; polyglycolized lipids like LABPASOL and GELUCIRE, oil or lipid, read-out: solubility in polyglycolized lipids): 25 to 30 mg/mL (≈ 105 to 126 mM); solubility ([1]; water, read-out: solubility in water): 1e-05 mg/mL (≈ 4.2e-05 mM); log of ratio of octanol to water solubility [2]: 5.6; inhibition of VEGF-induced endothelial cell growth [3]: specific and potent inhibitor
CN(C)c1cccc(Oc2cccc3nc(N)nc(N)c23)c1 [Procedure B 3, 2,4-Diamino-5-(3-dimethylaminophenoxy)quinazoline] | 224 to 225 °C (dec.) | 
Nc1nc(N)c2c(Oc3ccccc3F)cccc2n1 [Procedure B 4, 2,4-Diamino-5-(2-fluorophenoxy)quinazoline] | 301 to 303 °C | 
CC(C)(C)c1ccc(Oc2cccc3nc(N)nc(N)c23)cc1 [Procedure B 1, 2,4-Diamino-5-(4-tert-butylphenoxy)quinazoline] | 226 to 228 °C | 
COc1ccccc1Oc1cccc2nc(N)nc(N)c12 [Procedure B 6, 2,4-Diamino-5-(2-methoxyphenoxy)quinazoline] | 208 to 209 °C (dec.) | 

Reference: US6696482B2, “Formulations for hydrophobic pharmaceutical agents” (Sugen, Inc., priority 1997, dated 2004)
